Source: a compilation of properties of binary mixtures (doi:10.1016/j.jct.2017.01.014)

Experiment: xn = mol fraction of the nth substance listed
Conditions: 100 kPa

CCCC[n+]1ccn(C)c1.O=S(=O)([N-]S(=O)(=O)C(F)(F)F)C(F)(F)F + C=CN1CCCC1=O
x2 = 0
Conditions	speed of sound [m/s]
298.15 K	1227.9
303.15 K	1216.8
308.15 K	1205.8
313.15 K	1195
318.15 K	1184.2
323.15 K	1173.6

C=CN1CCCC1=O + CCCC[n+]1ccn(C)c1.O=S(=O)([N-]S(=O)(=O)C(F)(F)F)C(F)(F)F
speed of sound [m/s]
Conditions	x1 = 0.1377	x1 = 0.2099	x1 = 0.3148	x1 = 0.4117	x1 = 0.5061	x1 = 0.6078	x1 = 0.7032	x1 = 0.79	x1 = 0.8989	x1 = 1
298.15 K	1241.2	1249.4	1263	1278.3	1296.5	1321.4	1350.7	1384.6	1442.2	–
303.15 K	1229.8	1237.8	1251.1	1266.1	1283.9	1308.1	1336.6	1369.6	1425.6	1502.5
308.15 K	1218.5	–	–	1253.8	1271.2	1294.7	1322.7	1354.8	1409.1	1483.7
313.15 K	1207.3	–	1227.5	1241.7	–	1281.5	1308.7	1340	1392.8	1465
318.15 K	–	1203.6	–	1229.7	1246.1	1268.4	1294.9	1325.3	1376.5	–
323.15 K	1185.3	–	–	1217.8	1233.8	1255.4	1281.1	1310.5	1360.3	1428.1
